The source of these data is ChEMBL document CHEMBL6092162, “Identification of novel and potent triazoles targeting CYP51 for antifungal: Design, synthesis, and biological study” (Eur J Med Chem, 2024).

In brackets after ≈: the same amount, converted by molar mass. Activity calls are given as the source filed them. No cut-off for these calls is given here.

Data set [1] concerns Candida albicans. The experiment in a line: Antifungal activity against fluconazole-resistant Candida albicans CaR assessed as inhibition of fungal growth by CLSI M27-A3 guidelines based method. The class given is functional.
Another data set deals with Cryptococcus neoformans. The experiment in a line: Antifungal activity against Cryptococcus neoformans CGMCC 2.3161 assessed as inhibition of fungal growth by CLSI M27-A3 guidelines based method. The class given is functional.
Data set [2] has as its system Candida albicans. The experiment in a line: Antifungal activity against fluconazole-resistant Candida albicans clinical isolate 100 assessed as inhibition of fungal growth by CLSI M27-A3 guidelines based method. The class given is functional.
A further data set deals with Pichia kudriavzevii. As to the kind of experiment: Antifungal activity against Candida krusei GIM 2.1 assessed as inhibition of fungal growth by CLSI M27-A3 guidelines based method. The class given is functional.
The test system of the next data set is Candida parapsilosis. As to the kind of experiment: Antifungal activity against Candida parapsilosis GIM 2.190 assessed as inhibition of fungal growth by CLSI M27-A3 guidelines based method. The class given is functional. The note with it: Lodderomyces parapsilosis.
For data set [3], the system named is Candida albicans. As to the kind of experiment: Antifungal activity against fluconazole-resistant Candida albicans clinical isolate 904 assessed as inhibition of fungal growth by CLSI M27-A3 guidelines based method. The class given is functional.
For data set [4], the system named is Candida albicans. As to the kind of experiment: Antifungal activity against fluconazole-resistant Candida albicans clinical isolate 632 assessed as inhibition of fungal growth by CLSI M27-A3 guidelines based method. The class given is functional.
For a further data set, the system named is Nakaseomyces glabratus. The experiment in a line: Antifungal activity against Candida glabrata assessed as inhibition of fungal growth by CLSI M27-A3 guidelines based method. The class given is functional.
Data set [5] deals with Candida albicans. The experiment in a line: Antifungal activity against fluconazole-resistant Candida albicans clinical isolate 901 assessed as inhibition of fungal growth by CLSI M27-A3 guidelines based method. The class given is functional.
Data set [6] concerns Candida albicans. As to the kind of experiment: Antifungal activity against Candida albicans SC5314 assessed as inhibition of fungal growth by CLSI M27-A3 guidelines based method. The class given is functional.
The test system of the next data set is Candida tropicalis. The experiment in a line: Antifungal activity against Candida tropicalis GIM 2.183 assessed as inhibition of fungal growth by CLSI M27-A3 guidelines based method. The class given is functional.
Data set [7] relates to Candida albicans. As to the kind of experiment: Antifungal activity against Candida albicans GIM 2.194 assessed as inhibition of fungal growth by CLSI M27-A3 guidelines based method. The class given is functional.
The test system of data set [8] is Candida albicans. The experiment in a line: Antifungal activity against fluconazole-resistant Candida albicans clinical isolate 311 assessed as inhibition of fungal growth by CLSI M27-A3 guidelines based method. The class given is functional.
The subject of data set [9] is Candida albicans. The experiment in a line: Antifungal activity against fluconazole and iodiconazole resistant Candida albicans clinical isolate 17# assessed as inhibition of fungal growth by CLSI M27-A3 guidelines based method. The class given is functional.
The test system of data set [10] is Candida albicans. The experiment in a line: Antifungal activity against fluconazole-resistant Candida albicans clinical isolate 103 assessed as inhibition of fungal growth by CLSI M27-A3 guidelines based method. The class given is functional.
Data set [11] is described as follows: Cytotoxicity against HUVEC cells assessed as inhibition of cell growth incubated for 72 hrs by MTT assay. The note with it: human. The class given is toxicity, cell-based. For orientation: Tetrazolium assays rely on reduction of a dye to a coloured formazan, in cell work by metabolically active cells.
Data set [12] relates to Candida albicans. The experiment in a line: Antibiofilm activity against Candida albicans CPCC400616 assessed as inhibition of morphological transformation by measuring disappearance of mycelium at 2 microg/ml incubated for 4 hrs by microscopic photograph analysis. The class given is functional, organism-based. Conditions: dose 2.0 µg/ml.
For data set [13], the system named is Candida albicans. The experiment in a line: Antibiofilm activity against fluconazole-resistant Candida albicans CPCC400616 assessed as inhibition of metabolic activity of biofilm measured after 24 hrs by XTT reduction assay. The class given is functional.
Data set [14] is described as follows: Cytotoxicity against human OVCAR-3 cells assessed as inhibition of cell growth incubated for 72 hrs by MTT assay. The class given is toxicity, cell-based.
The subject of data set [15] is Candida albicans. The experiment in a line: Fungicidal activity against fluconazole and iodiconazole resistant Candida albicans clinical isolate 17# incubated for 48 hrs by SDA plate based method. The class given is functional.
In data set [16] the test system is Candida albicans. The experiment in a line: Selectivity ratio of MFC for fungicidal activity against fluconazole and iodiconazole resistant Candida albicans clinical isolate 17# to MIC80 for antifungal activity against fluconazole and iodiconazole resistant Candida albicans clinical isolate 17#. The class given is functional.
For data set [17], the system named is Candida albicans. As to the kind of experiment: Fungicidal activity against Candida albicans SC5314 incubated for 48 hrs by SDA plate based method. The class given is functional.
The test system of data set [18] is Candida albicans. The experiment in a line: Antibiofilm activity against fluconazole-resistant Candida albicans CPCC400616 assessed as inhibition of metabolic activity of biofilm measured after 48 hrs by XTT reduction assay. The class given is functional.
For data set [19], the system named is Candida albicans. The experiment in a line: Antibiofilm activity against fluconazole-resistant Candida albicans CPCC400616 assessed as inhibition of metabolic activity of biofilm measured after 6 hrs by XTT reduction assay. The class given is functional.
A short description of data set [20]: Cytotoxicity against human NCI-H460 cells assessed as inhibition of cell growth incubated for 72 hrs by MTT assay. The class given is toxicity, cell-based.
Data set [21] has as its system Candida albicans. The experiment in a line: Selectivity ratio of MFC for fungicidal activity against Candida albicans SC5314 to MIC80 for antifungal activity against Candida albicans SC5314. The class given is functional.
The nature of data set [22]: Cytotoxicity against HEK293T cells assessed as inhibition of cell growth incubated for 72 hrs by MTT assay. The class given is toxicity, cell-based, HEK-293T. The note with it: human.

Take `CN(Cc1ccc(N2CCN(Cc3ccc(OC(F)(F)F)cc3)CC2)cc1)CC(O)(Cn1cncn1)c1ccc(F)cc1F` (configuration not stated): the MIC80 in the data set on Candida albicans [1] was found to be 0.063 µg/mL (≈ 0.102 µM); in the data set on Cryptococcus neoformans, 0.1 µg/mL (≈ 0.162 µM); in the data set on Candida albicans [2], 8 µg/mL (≈ 13 µM); in the data set on Pichia kudriavzevii, 0.1 µg/mL (≈ 0.162 µM); with Candida parapsilosis, 0.025 µg/mL (≈ 0.0405 µM); in the data set with Candida albicans [3], 32 µg/mL (≈ 51.9 µM). In addition, the MIC80 with Candida albicans [4] was 32 µg/mL (≈ 51.9 µM); in the data set on Nakaseomyces glabratus it was 0.1 µg/mL (≈ 0.162 µM); with Candida albicans [5] it was greater than 64 µg/mL; in the data set with Candida albicans [6], 0.013 µg/mL (≈ 0.0211 µM); with Candida tropicalis, 0.006 µg/mL (≈ 0.00973 µM); in the data set with Candida albicans [7], 0.013 µg/mL (≈ 0.0211 µM). Further, the MIC80 is greater than 64 µg/mL with Candida albicans [8], 0.125 µg/mL (≈ 0.203 µM) in the data set with Candida albicans [9] and 32 µg/mL (≈ 51.9 µM) in the data set with Candida albicans [10].

On to `CN(Cc1ccc(I)cc1)CC(O)(Cn1cncn1)c1ccc(F)cc1F` (configuration not stated), for which the MIC80 in the data set on Candida albicans [1] was 2 µg/mL (≈ 4.13 µM); in the data set with Cryptococcus neoformans it was 0.1 µg/mL (≈ 0.206 µM); in the data set on Candida albicans [2], 2 µg/mL (≈ 4.13 µM); in the data set on Pichia kudriavzevii, 0.2 µg/mL (≈ 0.413 µM); in the data set on Candida parapsilosis, 0.025 µg/mL (≈ 0.0516 µM); in the data set on Candida albicans [3], 8 µg/mL (≈ 16.5 µM). Further, the MIC80 was 16 µg/mL (≈ 33 µM) in the data set with Candida albicans [4]; 0.2 µg/mL (≈ 0.413 µM) in the data set on Nakaseomyces glabratus; greater than 64 µg/mL in the data set on Candida albicans [5]; 0.013 µg/mL (≈ 0.0268 µM) in the data set on Candida albicans [6]; 0.013 µg/mL (≈ 0.0268 µM) with Candida tropicalis; 0.025 µg/mL (≈ 0.0516 µM) with Candida albicans [7]. Besides, the MIC80 is greater than 64 µg/mL in the data set with Candida albicans [8], 0.25 µg/mL (≈ 0.516 µM) in the data set on Candida albicans [9] and 32 µg/mL (≈ 66.1 µM) with Candida albicans [10]. The half-maximal inhibitory concentration (IC50) at 72 h in data set [11], in data set [14], in [20] and in data set [22] was greater than 10 µM in each case. For the same molecule, in the data set with Candida albicans [12], the result was Active. Moreover, the MIC50 is 16 µg/mL (≈ 33 µM) with Candida albicans [13], greater than 32 µg/mL with Candida albicans [18] and 8 µg/mL (≈ 16.5 µM) in the data set on Candida albicans [19]. Moreover, the MFC against Candida albicans [15] and against Candida albicans [17] was 32 µg/mL (≈ 66.1 µM) in each case. The Selectivity ratio is given as 128 with Candida albicans [16] and greater than 256 in the data set on Candida albicans [21].

What is called MIC80 is an inhibitory concentration at the 80% level, which refers to growth in some studies and to a panel of isolates in others. What is called IC50 is the concentration that gives 50% inhibition. A word on the MFC: it is the lowest tested concentration that kills the fungus rather than only halting it. Lower therefore signals more potent killing.
